From US20210269434A1, “TRICYCLIC COMPOUNDS AS INHIBITORS OF KRAS” (Incyte Corporation, priority 2020, published 2021)

Assays:
KRAS G12C = KRAS G12C (Homo sapiens, UniProt P01116, G12C); assay: GDP-GTP exchange assay (KRAS_G12C exchange); type: biochemical; conditions: bodipy-GDP loaded KRAS G12C 2.5 nM, SOS1 150 nM, GppNHp; 2 hours pre-incubation, 2 hours reaction; read-out: G12C_exchange
Summary of the method: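 Fluorescence exchange of bodipy-GDP for GppNHp, SOS1-driven, read at 485/520 nm; IC50 from four-parameter variable-slope fit. Both mutants used 2.5 nM final labelled protein and a 2 h compound pre-incubation. G12C reaction had 500 uM GppNHp and 150 nM SOS1 for 2 h; G12D ran 4 h.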

[1] = system: MIA PaCa-2 (KRAS G12C) cells; assay: Cellular pERK HTRF assay (KRAS_G12C pERK); type: cell-based, human; conditions: Homo sapiens, MIA PaCa-2, 4 hours incubation, read-out: G12C_pERK
Summary of the method: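 MIA PaCa-2 cells plated overnight, then exposed to compound for 4 h at 37 °C (G12C compounds). Phospho-ERK1/2 measured in lysates by HTRF (665/620 nm) after overnight antibody incubation; IC50 from percent inhibition versus log concentration.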

Sequence of KRAS G12C (P01116 1-188 isoform P01116-2 G12C): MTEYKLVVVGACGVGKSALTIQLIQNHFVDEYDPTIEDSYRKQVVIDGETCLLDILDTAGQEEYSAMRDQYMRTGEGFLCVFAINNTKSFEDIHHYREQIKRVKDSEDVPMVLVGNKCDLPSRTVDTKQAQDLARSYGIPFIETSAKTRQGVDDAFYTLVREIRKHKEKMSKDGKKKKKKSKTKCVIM

SMILES	IC50 (KRAS G12C)	IC50 [1]
CC#CC(=O)N1CC[C@H](n2nnc3c(OC[C@@H]4CCCN4C)nc4c(F)c(-c5cccc(Cl)c5C)c(CCC#N)cc4c32)C[C@H]1CC#N [Example 241a, 3-(1-((2S,4S)-1-(but-2-ynoyl)-2-(cyanomethyl)-piperidin-4-yl)-7-(3-chloro-2-methylphenyl)-6-fluoro-4-(((S)-1-methylpyrrolidin-2-yl)methoxy)-1H-[1,2,3]triazolo[4,5-c]quinolin-8-yl)propanenitrile]	≤ 100 nM	≤ 100 nM
COc1c(Cl)cccc1-c1c(C(F)(F)F)cc2c(nc(N3CC(C)(N(C)C)C3)c3nnn([C@H]4CCN(C(=O)/C=C/CN(C)C)[C@H](CC#N)C4)c32)c1F [Example 244, 2-((2S,4S)-4-(7-(3-chloro-2-methoxyphenyl)-4-(3-(dimethylamino)-3-methylazetidin-1-yl)-6-fluoro-8-(trifluoromethyl)-1H-[1,2,3]triazolo[4,5-c]quinolin-1-yl)-1-((E)-4-(dimethylamino)but-2-enoyl)piperidin-2-yl)acetonitrile]	≤ 100 nM	≤ 100 nM
COc1c(C)cccc1-c1c(C(F)(F)F)cc2c(nc(N3CC(C)(N(C)C)C3)c3nnn([C@H]4CCN(C(=O)/C=C/CN(C)C)[C@H](CC#N)C4)c32)c1F [Example 246, 2-((2S,4S)-4-(7-(2-methoxy-3-methylphenyl)-4-(3-(dimethylamino)-3-methylazetidin-1-yl)-6-fluoro-8-(trifluoromethyl)-1H-[1,2,3]triazolo[4,5-c]quinolin-1-yl)-1-((E)-4-(dimethylamino)but-2-enoyl)piperidin-2-yl)acetonitrile]	≤ 100 nM	≤ 100 nM
C=CC(=O)N1CC[C@H](n2nnc3c(N4CC(N(C)C)C4)nc4c(F)c(-c5cccc(C)c5Cl)c(C)cc4c32)C[C@H]1CC#N [Example 247, 2-((2S,4S)-1-acryloyl-4-(7-(2-chloro-3-methylphenyl)-4-(3-(dimethylamino)azetidin-1-yl)-6-fluoro-8-methyl-1H-[1,2,3]triazolo[4,5-c]quinolin-1-yl)piperidin-2-yl)acetonitrile]	≤ 100 nM	≤ 100 nM
Cc1cccc(-c2c(C)cc3c(nc(N4CC(N(C)C)C4)c4nnn([C@H]5CCN(C(=O)/C=C/CF)[C@H](CC#N)C5)c43)c2F)c1Cl [Example 248, 2-((2S,4S)-4-(7-(2-chloro-3-methylphenyl)-4-(3-(dimethylamino)azetidin-1-yl)-6-fluoro-8-methyl-1H-[1,2,3]triazolo[4,5-c]quinolin-1-yl)-1-((E)-4-fluorobut-2-enoyl)piperidin-2-yl)acetonitrile]	≤ 100 nM	≤ 100 nM
Cc1cccc(-c2c(C)cc3c(nc(N4CC(N(C)C)C4)c4nnn([C@H]5CCN(C(=O)/C=C/CN(C)C)[C@H](CC#N)C5)c43)c2F)c1Cl [Example 249, 2-((2S,4S)-4-(7-(2-chloro-3-methylphenyl)-4-(3-(dimethylamino)azetidin-1-yl)-6-fluoro-8-methyl-1H-[1,2,3]triazolo[4,5-c]quinolin-1-yl)-1-((E)-4-(dimethylamino)but-2-enoyl)piperidin-2-yl)acetonitrile]	≤ 100 nM	≤ 100 nM
CC#CC(=O)N1CC[C@H](n2nnc3c(N4CC(N(C)C)C4)nc4c(F)c(-c5cccc(C)c5Cl)c(C)cc4c32)C[C@H]1CC#N [Example 250, 2-((2S,4S)-1-(but-2-ynoyl)-4-(7-(2-chloro-3-methylphenyl)-4-(3-(dimethylamino)azetidin-1-yl)-6-fluoro-8-methyl-1H-[1,2,3]triazolo[4,5-c]quinolin-1-yl)piperidin-2-yl)acetonitrile]	≤ 100 nM	≤ 100 nM
C=CC(=O)N1CC[C@H](n2nnc3c(OC[C@@H]4CCCN4C)nc4c(F)c(-c5cccc(C)c5Cl)c(C)cc4c32)C[C@H]1CC#N [Example 251, 2-((2S,4S)-1-acryloyl-4-(7-(2-chloro-3-methylphenyl)-6-fluoro-8-methyl-4-(((S)-1-methylpyrrolidin-2-yl)methoxy)-1H-[1,2,3]triazolo[4,5-c]quinolin-1-yl)piperidin-2-yl)acetonitrile]	≤ 100 nM	≤ 100 nM
Cc1cccc(-c2c(C)cc3c(nc(-n4ccnc4C)c4nnn([C@H]5CCN(C(=O)/C=C/CN(C)C)[C@H](CC#N)C5)c43)c2F)c1Cl [Example 252, 2-((2S,4S)-4-(7-(2-chloro-3-methylphenyl)-6-fluoro-8-methyl-4-(2-methyl-1H-imidazol-1-yl)-1H-[1,2,3]triazolo[4,5-c]quinolin-1-yl)-1-((E)-4-(dimethylamino)but-2-enoyl)piperidin-2-yl)acetonitrile]	≤ 100 nM	≤ 100 nM
Cc1cccc(-c2c(C)cc3c(nc(OC[C@@H]4CCCN4C)c4nnn([C@H]5CCN(C(=O)/C=C/CF)[C@H](CC#N)C5)c43)c2F)c1Cl [Example 253, 2-((2S,4S)-4-(7-(2-chloro-3-methylphenyl)-6-fluoro-8-methyl-4-(((S)-1-methylpyrrolidin-2-yl)methoxy)-1H-[1,2,3]triazolo[4,5-c]quinolin-1-yl)-1-((E)-4-fluorobut-2-enoyl)piperidin-2-yl)acetonitrile]	≤ 100 nM	≤ 100 nM
CC#CC(=O)N1CC[C@H](n2nnc3c(OC[C@@H]4CCCN4C)nc4c(F)c(-c5cccc(C)c5Cl)c(C)cc4c32)C[C@H]1CC#N [Example 254, 2-((2S,4S)-1-(but-2-ynoyl)-4-(7-(2-chloro-3-methylphenyl)-6-fluoro-8-methyl-4-(((S)-1-methylpyrrolidin-2-yl)methoxy)-1H-[1,2,3]triazolo[4,5-c]quinolin-1-yl)piperidin-2-yl)acetonitrile]	≤ 100 nM	≤ 100 nM
C=CC(=O)N1CC[C@H](n2nnc3c(N4CC(C)(N(C)C)C4)nc4c(F)c(-c5cccc(C)c5Cl)c(C)cc4c32)C[C@H]1CC#N [Example 255, 2-((2S,4S)-1-acryloyl-4-(7-(2-chloro-3-methylphenyl)-4-(3-(dimethylamino)-3-methylazetidin-1-yl)-6-fluoro-8-methyl-1H-[1,2,3]triazolo[4,5-c]quinolin-1-yl)piperidin-2-yl)acetonitrile]	≤ 100 nM	≤ 100 nM
Cc1cccc(-c2c(C)cc3c(nc(N4CC(C)(N(C)C)C4)c4nnn([C@H]5CCN(C(=O)/C=C/CF)[C@H](CC#N)C5)c43)c2F)c1Cl [Example 256, 2-((2S,4S)-4-(7-(2-chloro-3-methylphenyl)-4-(3-(dimethylamino)-3-methylazetidin-1-yl)-6-fluoro-8-methyl-1H-[1,2,3]triazolo[4,5-c]quinolin-1-yl)-1-((E)-4-fluorobut-2-enoyl)piperidin-2-yl)acetonitrile]	≤ 100 nM	≤ 100 nM
Cc1cccc(-c2c(C)cc3c(nc(N4CC(C)(N(C)C)C4)c4nnn([C@H]5CCN(C(=O)/C=C/CN(C)C)[C@H](CC#N)C5)c43)c2F)c1Cl [Example 257, 2-((2S,4S)-4-(7-(2-chloro-3-methylphenyl)-4-(3-(dimethylamino)-3-methylazetidin-1-yl)-6-fluoro-8-methyl-1H-[1,2,3]triazolo[4,5-c]quinolin-1-yl)-1-((E)-4-(dimethylamino)but-2-enoyl)piperidin-2-yl)acetonitrile]	≤ 100 nM	≤ 100 nM
